Reference: patent US20220401564A1 (DANA-FARBER CANCER INSTITUTE, INC., priority 2019, published 2022)

Key:
VHL = target: T1, VHL (Homo sapiens, UniProt P40337); assay: Cellular VHL engagement assay (BRD4BD2-GFP / mCherry reporter cells); assay type: cell-based; conditions: with 250 nM AT1, 5 h
T1 construct: Cells stably expressing the BRD4BD2-GFP with mCherry reporter (40) were seeded; endogenous in cells
Procedure: Cells stably expressing the BRD4BD2-GFP with mCherry reporter (40) were seeded at 30-50% confluency in 384-well plates with 50 μL per well of FluoroBrite™ DMEM media (Thermo Fisher Scientific, A18967) supplemented with 10% FBS a day before compound treatment. Compounds and 250 nM AT1((2S,4R)-1-(2R)-2-Acetamido-3-[[6-[2-[(6S)-4-(4-chlorophenyl)-2,3,9-trimethyl-6H-thieno[3,2-f][1,2,4]triazolo[4,3-a][1,4]diazepin-6-yl]acetamido]hexyl]thio]-3-methylbutanoyl]-4-hydroxy-N-[4-(4-methylthiazol-5-yl)benzyl)pyrrolidinine-2-carboxamide) were dispensed using a D300e Digital Dispenser (HP), normalized to 0.5% DMSO, and incubated with the cells for 5 h. The assay plate was imaged immediately using an Acumen® High Content Imager (TTP Labtech) with 488 nm and 561 nm lasers in a […] grid per well format. The resulting images were analyzed using CellProfiler™.
A series of image analysis steps (an ‘image analysis pipeline’) was constructed. First, the red and green channels were aligned and cropped to target the middle of each well (to avoid analysis of the heavily clumped cells at the edges). A background illumination function was calculated for both red and green channels of each well individually and subtracted to correct for illumination variations across the 384-well plate from various sources of error. An additional step was then applied to the green channel to suppress the analysis of large auto fluorescent artifacts and enhance the analysis of cell specific fluorescence by way of selecting for objects under a given size (30 A.U.) and with a given shape (speckles). mCherry-positive cells were then identified in the red channel by filtering for objects 8-60 pixels in diameter and by using intensity to distinguish between clumped objects. The green channel was then segmented into GFP positive and negative areas and objects were labeled as GFP positive if at least 40% of it overlapped with a GFP positive area. The fraction of GFP-positive cells/mCherry-positive cells in each well was then calculated, and the green and red images were rescaled for visualization.

HDAC3 = HDAC3 (Homo sapiens, UniProt O15379); assay: Change in cellular protein abundance (TMT proteomics) in Kelly cells; assay type: cell-based; set-up: relative change in relative protein abundance with treatment of Kelly cells; endogenous in cells; host or cells: Kelly cells; conditions: scatter plots FIG. 1 and FIG. 3
Procedure: Lysis buffer (8 M Urea, 50 mM NaCl, 50 mM 4-(2hydroxyethyl)-1-piperazineethanesulfonic acid (EPPS) pH 8.5, protease and phosphatase inhibitors from Roche®) were added to the cell pellets and homogenized by 20 passes through a 21 gauge (1.25 in. long) needle to achieve a cell lysate with a protein concentration between 1-4 mg mL-1. A micro-BCA assay (Pierce™) was used to determine the final protein concentration in the cell lysate. 200 μg of protein for each sample were reduced and alkylated as described in Donovan et al., Elife 7:e38430 (2018).
Proteins were precipitated using methanol/chloroform. Four volumes of methanol were added to the cell lysate, followed by one volume of chloroform, and finally three volumes of water. The mixture was vortexed and centrifuged to separate the chloroform phase from the aqueous phase. The precipitated protein was washed with three volumes of methanol, centrifuged and the resulting washed precipitated protein was allowed to air dry. The precipitated protein was resuspended in 4 M Urea, 50 mM HEPES pH 7.4, followed by dilution to 1 M urea with the addition of 200 mM EPPS, pH 8. Proteins were first digested with LysC (1:50; enzyme:protein) for 12 hours at room temperature. The LysC digestion was diluted to 0.5 M Urea with 200 mM EPPS pH 8 followed by digestion with trypsin (1:50; enzyme:protein) for 6 hours at 37° C. Tandem mass tag (TMT) reagents (Thermo Fisher Scientific) were dissolved in anhydrous acetonitrile (ACN) according to manufacturer's instructions.
Anhydrous ACN was added to each peptide sample to a final concentration of 30% v/v, and labeling was induced with the addition of TMT reagent to each sample at a ratio of 1:4 peptide:TMT label. The 10-plex labeling reactions were performed for 1.5 hours at room temperature and the reaction quenched by the addition of hydroxylamine to a final concentration of 0.3% for 15 minutes at room temperature. The sample channels were combined at a 1:1:1:1:1:1:1:1:1:1:1 ratio, desalted using Cis solid phase extraction cartridges (Waters®) and analyzed by LC-MS for channel ratio comparison. Samples were then combined using the adjusted volumes determined in the channel ratio analysis and dried down in a speed vacuum. The combined sample was then resuspended in 1% formic acid, and acidified (pH 2-3) before being subjected to desalting with C18 SPE (Sep-Pak®, Waters®). Samples were then offline fractionated into 96 fractions by high pH reverse-phase HPLC (Agilent® LC1260) through an aeris peptide xb-c18 column (Phenomenex®) with mobile phase A containing 5% acetonitrile and 10 mM NH4HCO3 in LC-MS grade H2O, and mobile phase B containing 90% acetonitrile and 10 mM NH4HCO3 in LC-MS grade H2O (both pH 8.0). The 96 resulting fractions were then pooled in a non-continuous manner into 24 fractions and these fractions were used for subsequent mass spectrometry analysis.
Data were collected using an Orbitrap Fusion™ Lumos™ mass spectrometer (Thermo Fisher Scientific, San Jose, Calif., USA) coupled with a Proxeon EASY-nLC™ 1200 LC pump (Thermo Fisher Scientific). Peptides were separated on an EasySpray™ ES803 75 μm inner diameter microcapillary column (ThermoFisher Scientific).
Each analysis used an MS3-based TMT method as described previously. The data were acquired using a mass range of m z 340-1350, resolution 120,000, automatic gain control (AGC) target 1×10^6, maximum injection time 100 ms, dynamic exclusion of 120 seconds for the peptide measurements in the Orbitrap Fusion™ Lumos™ mass spectrometer. Data dependent MS2 spectra were acquired in the ion trap with a normalized collision energy (NCE) set at 55%, AGC target set to 1.5×10^5 and a maximum injection time of 150 ms. […]

T1 sequence (P40337 whole entry, species assumed): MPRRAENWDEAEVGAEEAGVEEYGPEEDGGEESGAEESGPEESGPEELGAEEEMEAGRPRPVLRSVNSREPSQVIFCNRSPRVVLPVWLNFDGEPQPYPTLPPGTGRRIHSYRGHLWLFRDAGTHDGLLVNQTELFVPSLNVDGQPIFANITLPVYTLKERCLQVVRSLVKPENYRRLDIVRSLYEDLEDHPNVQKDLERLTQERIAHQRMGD
HDAC3, sequence (O15379 whole entry): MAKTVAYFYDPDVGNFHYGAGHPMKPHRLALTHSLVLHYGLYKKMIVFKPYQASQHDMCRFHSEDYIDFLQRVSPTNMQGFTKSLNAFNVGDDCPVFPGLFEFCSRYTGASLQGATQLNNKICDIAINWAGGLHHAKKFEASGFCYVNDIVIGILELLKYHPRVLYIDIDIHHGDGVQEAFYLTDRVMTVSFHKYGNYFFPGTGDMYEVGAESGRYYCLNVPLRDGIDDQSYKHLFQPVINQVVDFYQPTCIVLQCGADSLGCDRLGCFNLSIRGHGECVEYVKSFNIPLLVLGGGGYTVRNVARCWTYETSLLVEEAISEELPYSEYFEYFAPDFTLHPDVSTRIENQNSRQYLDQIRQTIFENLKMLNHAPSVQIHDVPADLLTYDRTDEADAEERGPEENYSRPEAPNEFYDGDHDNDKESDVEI

Compound | IC50 (VHL) [µM] | HDAC3 protein levels, relative protein abundance compared to DMSO control (HDAC3)
Cc1ncsc1-c1ccc([C@H](C)NC(=O)[C@@H]2C[C@@H](O)CN2C(=O)[C@@H](NC(=O)CCOCCOCCOCCN(CCc2c[nH]c3ccccc23)Cc2ccc(/C=C/C(=O)NO)cc2)C(C)(C)C)cc1 [Compound 3, (2S,4R)-1-((S)-17-(tert-butyl)-3-(4-((E)-3-(hydroxyamino)-3-oxoprop-1-en-1-yl)benzyl)-1-(1H-indol-3-yl)-15-oxo-6,9,12-trioxa-3,16-diazaoctadecan-18-oyl)-4-hydroxy-N—((S)-1-(4-(4-methylthiazol-5-yl)phenyl)ethyl)pyrrolidine-2-carboxamide] | 15.1 | significant and selective reduction
Cc1ncsc1-c1ccc([C@H](C)NC(=O)[C@@H]2C[C@@H](O)CN2C(=O)[C@@H](NC(=O)CCOCCOCCOCCOCCN(CCc2c[nH]c3ccccc23)Cc2ccc(/C=C/C(=O)NO)cc2)C(C)(C)C)cc1 [Compound 4] | 22.9 | 
Cc1ncsc1-c1ccc([C@H](C)NC(=O)[C@@H]2C[C@@H](O)CN2C(=O)[C@@H](NC(=O)CCOCCOCCOCCOCCOCCN(CCc2c[nH]c3ccccc23)Cc2ccc(/C=C/C(=O)NO)cc2)C(C)(C)C)cc1 [Compound 5, (2S,4R)-1-((S)-23-(tert-butyl)-3-(4-((E)-3-(hydroxyamino)-3-oxoprop-1-en-1-yl)benzyl)-1-(1H-indol-3-yl)-21-oxo-6,9,12,15,18-pentaoxa-3,22-diazatetracosan-24-oyl)-4-hydroxy-N—((S)-1-(4-(4-methylthiazol-5-yl)phenyl)ethyl)pyrrolidine-2-carboxamide] | 19.3 | significant and selective reduction

Now from value to compound:

IC50 (VHL) [µM] | HDAC3 protein levels, relative protein abundance compared to DMSO control (HDAC3) | Compound
10.1 |  | Cc1ncsc1-c1ccc(CNC(=O)[C@@H]2C[C@@H](O)CN2C(=O)[C@@H](NC(=O)C2(F)CC2)C(C)(C)C)c(OCCOCCOCCN(CCc2c[nH]c3ccccc23)Cc2ccc(/C=C/C(=O)NO)cc2)c1 [Compound 8, (2S,4R)—N-(2-(2-(2-(2-((2-(1H-indol-3-yl)ethyl)(4-((E)-3-(hydroxyamino)-3-oxoprop-1-en-1-yl)benzyl)amino)ethoxy)ethoxy)ethoxy)-4-(4-methylthiazol-5-yl)benzyl)-1-((S)-2-(1-fluorocyclopropane-1-carboxamido)-3,3-dimethylbutanoyl)-4-hydroxypyrrolidine-2-carboxamide]
9 | significant and selective reduction | Cc1ncsc1-c1ccc([C@H](C)NC(=O)[C@@H]2C[C@@H](O)CN2C(=O)[C@@H](NC(=O)CCOCCOCCN(CCc2c[nH]c3ccccc23)Cc2ccc(/C=C/C(=O)Nc3ccccc3N)cc2)C(C)(C)C)cc1 [Compound 10]
 | significant and selective reduction | Cc1ncsc1-c1ccc([C@H](C)NC(=O)[C@@H]2C[C@@H](O)CN2C(=O)[C@@H](NC(=O)CCOCCOCCOCCN(CCc2c[nH]c3ccccc23)Cc2ccc(/C=C/C(=O)Nc3ccccc3N)cc2)C(C)(C)C)cc1 [Compound 11, (2S,4R)-1-((S)-3-(4-((E)-3-((2-aminophenyl)amino)-3-oxoprop-1-en-1-yl)benzyl)-17-(tert-butyl)-1-(1H-indol-3-yl)-15-oxo-6,9,12-trioxa-3,16-diazaoctadecan-18-oyl)-4-hydroxy-N—((S)-1-(4-(4-methylthiazol-5-yl)phenyl)ethyl)pyrrolidine-2-carboxamide]
 | significant and selective reduction | Cc1ncsc1-c1ccc([C@H](C)NC(=O)[C@@H]2C[C@@H](O)CN2C(=O)[C@@H](NC(=O)CCOCCOCCOCCOCCN(CCc2c[nH]c3ccccc23)Cc2ccc(/C=C/C(=O)Nc3ccccc3N)cc2)C(C)(C)C)cc1 [Compound 12, (2S,4R)-1-((S)-3-(4-((E)-3-((2-aminophenyl)amino)-3-oxoprop-1-en-1-yl)benzyl)-20-(tert-butyl)-1-(1H-indol-3-yl)-18-oxo-6,9,12,15-tetraoxa-3,19-diazahenicosan-21-oyl)-4-hydroxy-N—((S)-1-(4-(4-methylthiazol-5-yl)phenyl)ethyl)pyrrolidine-2-carboxamide]
